What was measured:
[1] = Antiviral activity against Human Immunodeficiency Virus by Reverse transcriptase assay in CEM-SS cells
[2] = Antiviral activity against Human Immunodeficiency Virus by Reverse transcriptase assay in CEM-SS
[3] = Antiviral activity against Human Immunodeficiency Virus by Reverse transcriptase assay in CEM-SS cells; remark: listed apart in the source
[4] = Antiviral activity against Human Immunodeficiency Virus by Reverse transcriptase (RT) assay in CEM-SS cells.
[5] = Antiviral activity against Human Immunodeficiency Virus by Reverse transcriptase assay CEM-SS cells

Row | Compound | IC50 [1] [µM] | other results
1 | FC(F)(F)c1cc(Cn2c(Br)nc3cc(Cl)c(Cl)cc32)cc(C(F)(F)F)c1 [1-(3,5-Bis-trifluoromethyl-benzyl)-2-bromo-5,6-dichloro-1H-benzoimidazole] | > 100 | –
2 | Cc1cn([C@H]2C[C@H](N=[N+]=[N-])[C@@H](CO)O2)c(=O)[nH]c1=O [1-((2R,4S,5S)-4-Azido-5-hydroxymethyl-tetrahydro-furan-2-yl)-5-methyl-1H-pyrimidine-2,4-dione] | 0.0031 | –
3 | Cc1ccc(Cn2c(Cl)nc3cc(Cl)c(Cl)cc32)cc1 [2,5,6-Trichloro-1-(4-methyl-benzyl)-1H-benzoimidazole] | – | IC50 [2]: > 100 µM
4 | O=[N+]([O-])c1ccc(Cn2c(Cl)nc3cc(Cl)c(Cl)cc32)cc1 [2,5,6-Trichloro-1-(4-nitro-benzyl)-1H-benzoimidazole] | – | IC50 [3]: > 100 µM
5 | Clc1ccc(Cn2c(Br)nc3cc(Cl)c(Cl)cc32)cc1Cl [2-Bromo-5,6-dichloro-1-(3,4-dichloro-benzyl)-1H-benzoimidazole] | > 100 | –
6 | Cc1cccc(Cn2c(Br)nc3cc(Cl)c(Cl)cc32)c1 [2-Bromo-5,6-dichloro-1-(3-methyl-benzyl)-1H-benzoimidazole] | 66 | –
7 | O=[N+]([O-])c1cccc(Cn2c(Br)nc3cc(Cl)c(Cl)cc32)c1 [2-Bromo-5,6-dichloro-1-(3-nitro-benzyl)-1H-benzoimidazole] | – | IC50 [4]: > 32 µM
8 | COc1ccc(Cn2c(Br)nc3cc(Cl)c(Cl)cc32)cc1 [2-Bromo-5,6-dichloro-1-(4-methoxy-benzyl)-1H-benzoimidazole] | – | IC50 [5]: > 100 µM

Source: BindingDB's records for doi:10.1021/jm970559i (University of Michigan, 1998)
